Laboratory results as given in patent publication US10801071B2, “TGF(β)-MIR200-MIG6 pathway and its use in the treatment of cancer as an indicator of resistance to EGFR inhibitors” (THE JOHNS HOPKINS UNIVERSITY, priority 2014, dated 2020).

Assays:
[1] = tested on: AKT phosphorylation and Mig6 expression; experiment: Immunoblot analysis of AKT phosphorylation and Mig6 after TGFβ blockade; format: cell-based, human; conditions: H1703 and JHU028 cells, TGFβ (2 ng/ml) plus SB-431542 (10 μM) for 7 days
Experimental: (§1) Two erlotinib-resistant cell lines (JHU028 and H1703) were treated with TGFβ (2 ng/ml) alone or in combination with SB-431542 (10 μM) for 7 days. A. Cell lysates were collected and subjected to immunoblot analysis with indicated antibodies. B. Levels of miR200c and miR205 were measured and relative expression is presented as ΔΔCt. C. […] Cell viability was assayed and values were set at 100% for untreated controls.
(§2) Antibodies and immunoblot analysis. Pelleted cells were lysed on ice by adding RIPA lysis buffer (Thermo Scientific, Rockford, Ill.) supplemented with protease and phosphatase inhibitors (Roche, Basel, Switzerland). Protein concentrations were determined by the BCA method and lysates diluted in SDS sample buffer (Bio-Rad, Hercules, Calif.) prior to SDS-PAGE. Anti-Mig6 antibody was a gift from Dr. Ferby (Nature medicine. 2006; 12:568-73). β-actin was obtained from Abcam (Cambridge, Mass.). All other antibodies were obtained from Cell Signaling (Beverly, Mass.). Secondary horseradish peroxidase (HRP)-conjugated antibodies were from KPL (Gaithersburg, Md.) and signals developed using West-Pico chemiluminescence substrate (Thermo Scientific). ImageJ (ver 1.46) software was used to quantify immunoblot signals on exposed films.
Autocrine or paracrine TGF3 signaling is required for the maintenance of the mesenchymal state. […]

[2] = tested on: miR200c and miR205; experiment: Quantitative real-time PCR for miR200c and miR205 after TGFβ blockade; format: cell-based, human; conditions: H1703 and JHU028 cells, TGFβ (2 ng/ml) plus SB-431542 (10 μM) for 7 days
Experimental: as §1
(§3) Quantitative real-time PCR for miRNA. RNA from cultured cells was extracted using the mirVana™ Kit (Ambion, Austin, Tex.). Total RNA from fresh frozen tumors was isolated using the Trizol reagent (Invitrogen, Carlsbad, Calif.). Specific quantitative real-time PCR was carried out using TaqMan MicroRNA Assays for miR200a, miR200b, miR200c, miR205 and control RNU6b (Applied Biosystems, Foster City, Calif.) on a 7900HT detector (Applied Biosystems, Foster City, Calif.).
(§4) Autocrine or paracrine TGF3 signaling is required for the maintenance of the mesenchymal state. Blockage of this signaling can inhibit or reverse EMT by upregulating miR200 and subsequently downregulating ZEB1/2 (28-31). As a corollary to this observation, over-expression of miR-200c restores the sensitivity of resistant NSCLC cells to the anti-EGFR antibody cetuximab. […]

[3] = tested on: JHU028 and H1703 erlotinib-resistant cell lines; experiment: Cell viability assay, erlotinib sensitivity after TGFβ blockade; format: cell-based, human; conditions: TGFβ plus inhibitor (SB-431542 10 μM or TGFβ RII/Fc 20 ng/ml) 7 days, then 1 μM erlotinib 72 hours
Experimental: as §1
Cell viability assay. Relative cell viability was determined using an Alamar Blue assay as outlined by the manufacturer (AbDSerotec, Raleigh, N.C.). New media containing 1/10 volume of Alamar Blue reagent was added to the wells and cells were incubated at 37° C. for 1 hour. Fluorescence (545 nm excitation, 590 nm emission wavelengths) was measured using a SpectraMax Plus384 fluorometer (Sunnyvale, Calif.). Cell viability was calculated relative to an untreated culture of cells incubated in parallel.
as §4

[4] = tested on: Mig6; experiment: Immunoblot analysis of Mig6 after inhibitor exposure in parental and TGFβ-induced H358 cells; format: cell-based, human; conditions: 24 hours exposure
Experimental: A. Protein lysates were extracted from indicated cell lines Immunoblot analysis was performed with antibodies against E-cadherin, vimentin and β-actin. […] C. […] Cells were collected at different time points and Immunoblot analysis was performed with indicated antibodies. […] Values were set at 100% for untreated controls. […] F. Protein lysates were extracted from H358 cells treated with TGFβ1 or control vehicle for 21 days and immunoblot analysis was performed with antibodies against indicated RTKs. β-actin was used as a loading control.
as §2, with “films. […]” for “films.”

[5] = tested on: directly xenografted human NSCLC tumors; experiment: Erlotinib response of directly xenografted primary human tumors in nude mice; format: in vivo; conditions: lung tumors CTG-0167, CTG-0502, CTG-0199 and CTG-0157 with low EGFR and Mig6 expression, Erlotinib 35 mg/kg
Source text: Xenograft generation. […] The animals were maintained in accordance to guidelines of the American Association of Laboratory Animal Care and the research protocol was approved by the Johns Hopkins University Animal Use and Care Committee.
We obtained 18 human NSCLCs, and 27 pancreatic tumors that were directly xenografted into nude mice. No erlotinib-sensitizing mutations in EGFR were detected in any of these tumors and there was no correlation of KRAS mutation with erlotinib response. For all models tested, miR200 levels were measured by quantitative RT-PCR and mRNA levels of Mig6 and EGFR were determined by Affymetrix expression array. […] Supporting this observation, an inverse correlation between miR200c and Mig6 expression levels was noted across the pancreatic models (data not shown). […] Unlike the limited predictive ability of the Mig6/EGFR ratio in such tumors with low EGFR expression, the Mig6(mRNA)/miR200c ratio was still able to correctly identify three out of four of these lung tumors with low EGFR mRNA as erlotinib-resistant. Therefore, the ratio of Mig6 to miR200 was a reliable predictive biomarker of the primary tumors response to EGFR TKIs regardless of their EGFR status.

[6] = tested on: miR200 family members (200a, 200b, 200c and 205); experiment: Real-time PCR of miR200 family after exposure to TGFβ; format: cell-based, human; conditions: SCC-S, H358 and H292 cells, exposure for 21 days
Experimental: RNA was extracted and expression levels of miR200a, miR200b, miR200c and miR205 were quantified by real-time PCR. B. RNA was extracted from four sensitive/resistant cancer cell lines pairs. Levels of miR200a, miR200b, miR200c and miR205 were measured and relative expression is presented as average fold change of each miRNA in erlotinib-sensitive cell lines relatively to that in resistant cells, which was given a value 1. […] Relative quantification of miRNA expression was performed by using RNU6b as an internal control. The results are presented as expression average of each miRNA in erlotinib-sensitive cell lines relatively to that in erlotinib-resistant cells.
as §3
We next examined changes in miR200 levels in erlotinib-sensitive (SCC-S) and erlotinib-resistant (SCC-R) isogenic H&N cell lines.

[7] = tested on: SCC-S, H358 and H292 erlotinib-sensitive epithelial cell lines; experiment: TGFβ-induced EMT, immunoblot of EMT markers and kinases; format: cell-based, human
Experimental: FIGS. 2A-2F depict that increased production of TGFβ induces an EMT-associated kinase switch which promotes erlotinib-resistance of tumor cells. A. Protein lysates were extracted from indicated cell lines Immunoblot analysis was performed with antibodies against E-cadherin, vimentin and β-actin. B. Tumor cell supernatants of 25 cancer cell lines shown in A were collected and differential levels of TGFβ production were analyzed by ELISA. C. […] Cells were collected at different time points and Immunoblot analysis was performed with indicated antibodies. […] Values were set at 100% for untreated controls. […]
Antibodies and immunoblot analysis. […] Protein concentrations were determined by the BCA method and lysates diluted in SDS sample buffer (Bio-Rad, Hercules, Calif.) prior to SDS-PAGE. […] ImageJ (ver 1.46) software was used to quantify immunoblot signals on exposed films.
Increased production of TGFβ induces an EMT-associated kinase switch that promotes erlotinib-resistance of tumor cells. […] To test whether TGFβ can promote this kinase switch, levels of phospho IGFR, PDGFR, FGFR and FAK kinases were assessed in response to treatment of erlotinib-sensitive cells (H358, H292 and SCC-S) with TGFβ1 for 21 days.

## NC(=O)c1ccc(-c2nc(-c3ccc4c(c3)OCO4)c(-c3ccccn3)[nH]2)cc1 [SB-431542]
[1]
  AKT phosphorylation: downregulation
  Mig6 expression: downregulation
[2]
  miR200c levels: significant increase
  miR205 levels: significant increase
[3]
  sensitivity of tumor cells to erlotinib: increased the sensitivity of tumor cells to erlotinib

## N#CC(=C(/N)Sc1ccccc1N)/C(C#N)=C(\N)Sc1ccccc1N [U0126]
[4]
  basal expression of Mig6: reduced basal expression of Mig6

## C#Cc1cccc(Nc2ncnc3cc(OCCOC)c(OCCOC)cc23)c1 [erlotinib]
[5]
  erlotinib response of lung tumor xenografts: erlotinib-resistant
[4]
  basal expression of Mig6: reduced basal expression of Mig6

## TGFβ
[6]
  expression of the miR200 family members (200a, 200b, 200c and 205): significantly reduced
[7]; time course 1-21 days, TGF-β1 or TGF-β3, SCC-S, H358 and H292 cells
  EMT markers (loss of E-cadherin and upregulation of vimentin): complete EMT by day 14

## TGFβ1: TGFβ isoform used to treat erlotinib-sensitive cells for 21 days
[7]; H358, H292 and SCC-S cells, TGFβ1 for 21 days, compared to untreated counterparts
  levels of phospho IGFR, PDGFR, FGFR and FAK kinases: significantly greater activity
